This note sets out measurements from patent US10011571B2, “Preparation method for aromatic heterocyclic compound used as selective JAK3 and/or JAK1 kinase inhibitor and application of aromatic heterocyclic compound” (SHENZHEN CHIPSCREEN BIOSCIENCES, LTD., priority 2014, dated 2018).

One assay deals with HeLa cells. The assay can be described thus: Cell growth activity assay (MTS), HeLa cell model. Set-up: activity: dose or concentration left out as unconfirmed. The conditions noted are these: Homo sapiens, HeLa, 72 h, read-out: HeLa % growth rate. It counts as cell-based, human. The essentials: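 HeLa human cervical cancer cells were plated at about 5000 cells/well in a 96-well plate. After 24 h, test compounds were added in concentration gradients (highest final concentration 40 μM), alongside a DMSO solvent control and a negative control. After another 72 h, the medium was replaced with 100 μL fresh medium plus 20 μL MTS/PMS (20:1). Plates were incubated 2 h at 37° C. and absorbance was read at 490 nm to give growth inhibition and GI50.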

The next assay addresses JAK3 (Homo sapiens (Human), UniProt P52333). Description: Z'-LYTE enzymatic activity detection, JAK3. The following applies: test compound 30 nM. In kind it is biochemical. The essentials:
(§1)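 GST-tagged human recombinant kinases with Z′-LYTE peptides (Tyr6 for JAK1, Tyr4 for JAK2 and JAK3), ATP from kit, reacted 1 h at room temperature; development 1 h, ratio 445/520 nm at 400 nm excitation gives phosphorylation. Inhibition vs solvent control at 30 nM (JAK2, JAK3) or 300 nM (JAK1); tofacitinib as positive control.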

The target of the next assay is JAK2 (Homo sapiens (Human), UniProt O60674). Description: Z'-LYTE enzymatic activity detection, JAK2. It counts as biochemical. The conditions noted are these: test compound 30 nM. The method in brief: as §1
Another assay addresses JAK1 (Homo sapiens (Human), UniProt P23458). Description: Z'-LYTE enzymatic activity detection, JAK1. It counts as biochemical. The conditions noted are these: test compound 300 nM. The essentials: as §1
The test system of the next assay is HUVEC cells. Description: Cell growth activity assay (MTS), HUVEC cell model. It counts as cell-based. The following applies: Homo sapiens, 10 μM, 72 h, read-out: HUVEC % growth rate @10 μM. From the text: MTS assay is a routine method for cell toxicity detection. The basic principle is based on the capacity of dehydrogenase in the mitochondria of living cells to reduce a novel yellow […] MTS to formazan, so that the amount of living cells is proportional to the amount of formazan product by detecting the absorbance at 490 nm (OD), thereby speculating the amount of living cells according to the OD value, and understanding the capacity of the test compound to inhibit the growth of cells or to kill the cells.
HeLa cell is a human cervical cancer cell line, and belongs to epithelial tumor cell line; HUVEC is a human umbilical vein endothelial cell, and belongs to primary endothelial cell; both types of cells express all subtypes except for JAK3.
The change of JAK kinase activity has no significant influence on other cell types except for the immune cells, and both cell models mentioned above are mainly used to evaluate whether there are any other kinase targets besides JAK kinases or there are nonselective cell toxicities.
In this experiment, a cultured cell model is incubated with the test compounds at different concentrations for a specific duration. The effect of the treatment by the test compound on the growth of cells is detected using MTS assay.
MTS is performed according to routine procedure in a 96-well plate.
The model cells are inoculated into each well of the 96-well plate at an appropriate concentration (about 5000 cells/well). After 24 h, the test compounds are added at different concentration gradients (the highest final concentration is 40 μM). A solvent control (DMSO) and a negative control are also performed at the same time. Each experiment is repeated for 3 times. The cells are detected after cultured for another 72 h.
After all culture medium is aspirated out of the well, 100 μL fresh medium and 20 μL pre-formulated mixture of MTS and PMS (in a ratio of 20:1) are added to each well. After incubation at 37° C. for 2 h, it is then detected by a microplate reader (490 nm).
The cell growth inhibitory rate and GI50 of the test compound are calculated as above.
Based on the above method, cytological evaluation is performed to the compounds described herein (for the detection of CTLL-2 cell, the concentration of the test compound is 300 nM; […]).

The next assay has as its system CTLL-2 cells. The assay can be described thus: Cell growth activity assay (MTS), CTLL-2 cell model. It counts as cell-based, mouse. The following applies: Mus musculus, CTLL-2, 300 nM, 24 h, read-out: CTLL-2 % growth rate @300 nM. The essentials:
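Mouse IL-2-dependent T-cell line seeded ~20,000 cells/well, compounds added after 24 h at gradient concentrations (top 10 μM; CTLL-2 evaluation at 300 nM), cultured another 24 h. MTS/PMS added, 2 h at 37° C, absorbance 490 nm; inhibition vs DMSO control after negative-control background subtraction, GI50 calculated; triplicate.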

JAK1, sequence (P23458 whole entry): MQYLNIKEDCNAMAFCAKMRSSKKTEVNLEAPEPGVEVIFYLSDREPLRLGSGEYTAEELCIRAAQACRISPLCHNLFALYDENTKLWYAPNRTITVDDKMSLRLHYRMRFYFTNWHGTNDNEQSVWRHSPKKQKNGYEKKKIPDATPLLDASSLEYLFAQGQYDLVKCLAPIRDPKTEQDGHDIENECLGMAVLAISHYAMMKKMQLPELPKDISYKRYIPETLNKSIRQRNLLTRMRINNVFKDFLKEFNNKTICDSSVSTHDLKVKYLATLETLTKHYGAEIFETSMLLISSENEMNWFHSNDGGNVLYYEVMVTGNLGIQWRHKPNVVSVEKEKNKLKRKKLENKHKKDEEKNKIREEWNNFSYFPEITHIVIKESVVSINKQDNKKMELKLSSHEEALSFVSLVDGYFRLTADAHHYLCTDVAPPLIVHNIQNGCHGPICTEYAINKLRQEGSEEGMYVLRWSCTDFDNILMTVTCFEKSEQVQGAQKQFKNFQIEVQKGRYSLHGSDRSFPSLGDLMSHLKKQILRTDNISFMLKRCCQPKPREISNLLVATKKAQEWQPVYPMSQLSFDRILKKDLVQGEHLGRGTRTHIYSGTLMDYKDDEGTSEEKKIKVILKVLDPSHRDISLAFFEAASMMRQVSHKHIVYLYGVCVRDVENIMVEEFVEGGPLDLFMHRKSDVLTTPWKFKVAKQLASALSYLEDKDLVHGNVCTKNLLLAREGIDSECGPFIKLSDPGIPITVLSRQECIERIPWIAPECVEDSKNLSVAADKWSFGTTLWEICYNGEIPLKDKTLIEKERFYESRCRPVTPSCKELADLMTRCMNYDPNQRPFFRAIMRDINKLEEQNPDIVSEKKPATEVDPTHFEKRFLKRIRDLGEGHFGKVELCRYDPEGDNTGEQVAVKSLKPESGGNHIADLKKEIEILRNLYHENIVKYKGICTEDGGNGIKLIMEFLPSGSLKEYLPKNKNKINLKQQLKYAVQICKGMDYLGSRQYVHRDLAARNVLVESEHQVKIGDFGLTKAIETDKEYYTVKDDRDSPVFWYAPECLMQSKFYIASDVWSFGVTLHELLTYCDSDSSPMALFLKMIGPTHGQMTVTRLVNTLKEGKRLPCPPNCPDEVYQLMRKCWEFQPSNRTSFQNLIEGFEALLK
JAK3, sequence (P52333 whole entry): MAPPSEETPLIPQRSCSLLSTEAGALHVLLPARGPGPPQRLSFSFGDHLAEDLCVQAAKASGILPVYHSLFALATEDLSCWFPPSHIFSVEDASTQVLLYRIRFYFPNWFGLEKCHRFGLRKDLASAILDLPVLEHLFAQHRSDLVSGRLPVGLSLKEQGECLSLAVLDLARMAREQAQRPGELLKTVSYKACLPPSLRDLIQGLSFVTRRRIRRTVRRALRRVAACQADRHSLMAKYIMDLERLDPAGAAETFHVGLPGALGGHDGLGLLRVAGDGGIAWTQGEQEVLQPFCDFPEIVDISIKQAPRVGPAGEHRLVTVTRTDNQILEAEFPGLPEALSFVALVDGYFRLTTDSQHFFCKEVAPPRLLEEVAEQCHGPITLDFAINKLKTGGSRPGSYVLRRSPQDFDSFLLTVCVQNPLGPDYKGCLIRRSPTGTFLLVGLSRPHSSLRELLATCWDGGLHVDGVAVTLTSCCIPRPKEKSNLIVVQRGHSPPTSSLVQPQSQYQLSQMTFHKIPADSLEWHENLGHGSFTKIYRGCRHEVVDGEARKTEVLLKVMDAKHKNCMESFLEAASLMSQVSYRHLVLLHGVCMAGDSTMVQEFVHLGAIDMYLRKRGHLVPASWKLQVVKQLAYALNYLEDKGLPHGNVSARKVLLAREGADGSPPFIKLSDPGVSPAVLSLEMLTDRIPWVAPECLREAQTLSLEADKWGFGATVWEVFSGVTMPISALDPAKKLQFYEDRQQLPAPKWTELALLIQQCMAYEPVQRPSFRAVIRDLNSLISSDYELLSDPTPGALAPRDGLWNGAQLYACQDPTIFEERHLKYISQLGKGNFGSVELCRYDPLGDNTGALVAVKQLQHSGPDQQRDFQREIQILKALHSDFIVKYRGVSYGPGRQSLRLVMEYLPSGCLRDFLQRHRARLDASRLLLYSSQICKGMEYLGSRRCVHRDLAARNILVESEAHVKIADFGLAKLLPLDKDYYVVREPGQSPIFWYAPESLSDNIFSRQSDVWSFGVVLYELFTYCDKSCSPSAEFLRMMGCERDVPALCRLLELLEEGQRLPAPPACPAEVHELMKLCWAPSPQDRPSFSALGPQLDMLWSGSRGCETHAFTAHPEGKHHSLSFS
JAK2, sequence (O60674 whole entry): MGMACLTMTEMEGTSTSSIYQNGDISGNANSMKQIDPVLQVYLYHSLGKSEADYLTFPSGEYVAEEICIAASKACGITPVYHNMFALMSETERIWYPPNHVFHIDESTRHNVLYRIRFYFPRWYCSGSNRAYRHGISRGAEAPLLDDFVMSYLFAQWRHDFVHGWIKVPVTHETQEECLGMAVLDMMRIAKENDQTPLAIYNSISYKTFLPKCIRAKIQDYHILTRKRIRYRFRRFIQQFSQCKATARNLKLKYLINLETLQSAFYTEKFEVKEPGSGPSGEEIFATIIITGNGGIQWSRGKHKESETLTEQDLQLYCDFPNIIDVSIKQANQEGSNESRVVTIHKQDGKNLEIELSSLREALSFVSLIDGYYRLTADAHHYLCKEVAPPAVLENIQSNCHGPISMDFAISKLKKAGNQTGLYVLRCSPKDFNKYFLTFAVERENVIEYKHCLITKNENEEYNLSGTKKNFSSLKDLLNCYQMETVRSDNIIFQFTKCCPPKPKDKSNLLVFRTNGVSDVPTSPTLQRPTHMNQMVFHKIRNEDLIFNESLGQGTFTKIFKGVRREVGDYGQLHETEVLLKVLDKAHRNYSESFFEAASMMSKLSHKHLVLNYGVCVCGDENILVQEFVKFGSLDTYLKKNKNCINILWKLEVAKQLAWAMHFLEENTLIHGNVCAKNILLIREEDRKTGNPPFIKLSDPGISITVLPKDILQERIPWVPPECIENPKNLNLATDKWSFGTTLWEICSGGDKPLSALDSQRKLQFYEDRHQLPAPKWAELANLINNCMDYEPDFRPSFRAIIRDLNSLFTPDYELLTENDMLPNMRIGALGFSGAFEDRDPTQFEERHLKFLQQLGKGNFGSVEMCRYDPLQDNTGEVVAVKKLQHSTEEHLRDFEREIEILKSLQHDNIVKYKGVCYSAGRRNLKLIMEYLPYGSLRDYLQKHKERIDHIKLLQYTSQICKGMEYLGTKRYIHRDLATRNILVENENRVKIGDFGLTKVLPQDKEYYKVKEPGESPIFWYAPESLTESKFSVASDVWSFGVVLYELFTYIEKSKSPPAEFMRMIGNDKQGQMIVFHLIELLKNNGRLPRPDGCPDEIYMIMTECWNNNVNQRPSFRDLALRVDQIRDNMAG

As to `C=CC(=O)N(C)c1cc(Nc2ncc(Cl)c(NCCCNC(=O)c3ccc(N(C)C)cc3)n2)ccc1F` [Example 32, N-(3-(5-chloro-2-(4-fluoro-3-(N-methylacrylamido)phenylamino)pyrimidinyl-4-amino)propyl)-4-dimethylamino benzamide], the activity in the assay on HeLa cells turned out to be 68%. Further, the “JAK3 RV (ratio between the inhibitory rate of the test compound and that of Xeljanz)” value at JAK3 was found to be 0.94. The inhibition at 0.03 µM at JAK3 (read-out: JAK3 % inhibitory rate @30 nM) was found to be 89%; at JAK2 (read-out: JAK2 % inhibitory rate @30 nM) it was 2%. Also, the “JAK2 RV (ratio between the inhibitory rate of the test compound and that of Xeljanz)” value on JAK2 is listed as 0.03. For the same molecule, the “JAK1 RV (ratio between the inhibitory rate of the test compound and that of Xeljanz)” value at JAK1 is recorded as 0.57. Besides, the inhibition at 0.3 µM on JAK1 (read-out: JAK1 % inhibitory rate @300 nM) amounted to 49%. Also, the activity at 10 µM in the assay with HUVEC cells was found to be 72%. Further, in the assay with CTLL-2 cells, the activity at 0.3 µM worked out at 16%.
